Laboratory results from US8575167B2, “Spiro compounds having stearoyl-CoA desaturase action” (Takeda Pharmaceutical Company Limited, priority 2007, dated 2013).

Molecular target: T1, SCD (Rattus norvegicus, UniProt P07308)
T1 construct: an enzyme reaction using rat liver microsome (20 μg) was performed for 15 min; from tissue; host or cells: rat liver microsome fraction
T1 sequence (P07308 1-358): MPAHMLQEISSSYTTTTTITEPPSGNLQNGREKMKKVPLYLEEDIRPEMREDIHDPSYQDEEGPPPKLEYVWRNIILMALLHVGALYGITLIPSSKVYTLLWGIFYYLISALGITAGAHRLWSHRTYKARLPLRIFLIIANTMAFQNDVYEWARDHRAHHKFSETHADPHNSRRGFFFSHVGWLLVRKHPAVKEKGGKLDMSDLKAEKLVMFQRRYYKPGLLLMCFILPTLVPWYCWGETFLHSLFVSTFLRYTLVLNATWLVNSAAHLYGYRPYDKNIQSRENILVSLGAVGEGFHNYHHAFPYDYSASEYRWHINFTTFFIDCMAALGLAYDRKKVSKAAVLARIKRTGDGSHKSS
Assay: Measurement of SCD inhibitory activity using microsome (TLC detection system)
Format: biochemical
Details: rat liver microsome (20 μg), 15 min, [14C] stearoyl-CoA, test compound (10 mM) diluted to 3/1000 with 3× buffer, 10 μL in 30 μL reaction; for inhibition at 10 µM: read-out: SCD activity inhibitory rate (%)
Description: (Test Method: Measurement of SCD Inhibitory Activity Using Microsome (TLC Detection System))
A test compound (10 mM) diluted with DMSO in advance was secondarily diluted to 3/1000 with 3× buffer (300 mmol/L NaH2PO4 [pH 7.4], 450 mM KCl, 30 mM NaF, 9 mM MgCl2, 4.5 mM glutathione [reduced form], 0.3% BSA [fatty acid free, SIGMA]). The test compound (10 μL) diluted with the assay buffer was dispensed to a PP 96-deep well block, and a microsome fraction (10 μL) diluted with a microsome buffer was added thereto. The enzyme reaction was started by the addition of 10 μL of [^14C] stearoyl-CoA (American Radiolabeled Chemicals [ARC], Inc.) diluted to 10 μCi/mL with 9 mmol/L NADH. For evaluation of the compound, an enzyme reaction using rat liver microsome (20 μg) was performed for 15 min. The reaction was quenched by the addition of 10 μL of 2.5N NaOH, a plate seal was applied, and the reaction mixture was incubated overnight in a dry heater set to 65° C. to allow saponification. Solvent extraction of fatty acid was based on the Bligh&Dyer method (1). Formic acid:methanol:chloroform (1:6:3) (200 μL) was added, the state of single layer was maintained, the mixture was sufficiently stirred, and pure water (120 μL) was added to allow separation into two layers. The lower chloroform layer (10 μL) was spotted on reversed-phase TLC plate (RP-18, 1154230001, Merck Japan, Ltd.) and developed with acetonitrile:pure water:acetic:acid (95:4.5:0.5). The TLC plate was dried and transferred onto an Imaging Plate (Fuji Photo Film Co., Ltd.) for not less than 5 hr. For detection, BAS-5000 (Fuji Photo Film Co., Ltd) was used and the obtained spot images were converted to numerical values using Multi Gauge Ver2.3 (Fuji Photo Film Co., Ltd), based on which the SCD activity inhibitory rate (%) was determined.

Structure (SMILES)	inhibition at 10 µM [%]	SCD activity inhibitory rate (%)
Cc1nsc(-c2ccc(N3CCC4(C=Cc5ccccc54)CC3)nn2)n1 [Example 2, 1′-[6-(3-methyl-1,2,4-thiadiazol-5-yl)pyridazin-3-yl]spiro[indene-1,4′-piperidine]]	99	
Cc1nsc(-c2ccc(N3CCC4(CC3)Cc3ccccc3O4)nn2)n1 [Example 4, 1′-[6-(3-methyl-1,2,4-thiadiazol-5-yl)pyridazin-3-yl]-3H-spiro[1-benzofuran-2,4′-piperidine]]	97	
Cc1nsc(-c2ccc(N3CCC4(CC3)CC(=O)c3ccccc3O4)nn2)n1 [Example 5, 1′-[6-(3-methyl-1,2,4-thiadiazol-5-yl)pyridazin-3-yl]spiro[chromene-2,4′-piperidin]-4(3H)-one]	100	
Cc1nsc(-c2ccc(N3CCC4(CC3)NC(=O)c3ccccc3N4)nn2)n1 [Example 6, 1-[6-(3-methyl-1,2,4-thiadiazol-5-yl)pyridazin-3-yl]-1′H-spiro[piperidine-4,2′-quinazolin]-4′(3′H)-one]	95	
C1=CC2(CCN(c3ccc(-c4ncns4)nn3)CC2)c2ccccc21 [Example 11, 1′-[6-(1,2,4-thiadiazol-5-yl)pyridazin-3-yl]spiro[indene-1,4′-piperidine]]	93	
Cc1nsc(-c2ccc(N3CCC4(CC3)COc3ccccc34)nn2)n1 [Example 17, 1′-[6-(3-methyl-1,2,4-thiadiazol-5-yl)pyridazin-3-yl]spiro[1-benzofuran-3,4′-piperidine]]	100	
Cc1nsc(-c2ccc(N3CCC4(C=Cc5ccccc5O4)CC3)nn2)n1 [Example 20, 1′-[6-(3-methyl-1,2,4-thiadiazol-5-yl)pyridazin-3-yl]spiro[chromene-2,4′-piperidine]]	98	
Cc1nsc(-c2ccc(N3CCC4(CC3)CN(c3cccc(F)c3)C(=O)O4)nn2)n1 [Example 29, 3-(3-fluorophenyl)-8-[6-(3-methyl-1,2,4-thiadiazol-5-yl)pyridazin-3-yl]-1-oxa-3,8-diazaspiro[4.5]decan-2-one]	99	
Cc1nsc(-c2ccc(N3CCC4(CC3)NC(=O)c3ccccc3O4)nn2)n1 [Example 31, 1′-[6-(3-methyl-1,2,4-thiadiazol-5-yl)pyridazin-3-yl]spiro[1,3-benzoxazine-2,4′-piperidin]-4(3H)-one]	92	
Cc1nsc(-c2ccc(N3CCC4(CC3)CN(c3ccccc3)C(=O)CO4)nn2)n1 [Example 32, 9-[6-(3-methyl-1,2,4-thiadiazol-5-yl)pyridazin-3-yl]-4-phenyl-1-oxa-4,9-diazaspiro[5.5]undecan-3-one]	94	
Cc1noc(-c2ccc(N3CCC4(C3)OCc3ccccc34)nn2)n1 (stereo not drawn) [Example 43, 1′-[6-(3-methyl-1,2,4-oxadiazol-5-yl)pyridazin-3-yl]-3H-spiro[2-benzofuran-1,3′-pyrrolidine]]	100	
Cc1noc(-c2ccc(N3CCC4(CC3)CN(c3ccc(F)cc3)C(=O)O4)nn2)n1 [Example 47, 3-(4-fluorophenyl)-8-[6-(3-methyl-1,2,4-oxadiazol-5-yl)pyridazin-3-yl]-1-oxa-3,8-diazaspiro[4.5]decan-2-one]	93	
Cc1nsc(-c2ccc(N3CCC4(COc5ccccc54)C3)nn2)n1 (stereo not drawn) [Example 50, 1′-[6-(3-methyl-1,2,4-thiadiazol-5-yl)pyridazin-3-yl]spiro[1-benzofuran-3,3′-pyrrolidine]]	99	
Cc1noc(-c2ccc(N3CCC4(COc5ccccc54)C3)nn2)n1 (stereo not drawn) [Example 51, 1′-[6-(3-methyl-1,2,4-oxadiazol-5-yl)pyridazin-3-yl]spiro[1-benzofuran-3,3′-pyrrolidine]]	97	
O=C(CNC(=O)c1ccc(N2CCC3(C=Cc4ccccc43)CC2)nn1)c1ccccc1 [Example 55, N-(2-oxo-2-phenylethyl)-6-(1′H-spiro[indene-1,4′-piperidin]-1′-yl)pyridazine-3-carboxamide]	99	
O=C(NCC(O)c1ccccc1)c1ccc(N2CCC3(C=Cc4ccccc43)CC2)nn1 (stereo not drawn) [Example 60, N-(2-hydroxy-2-phenylethyl)-6-(1′H-spiro[indene-1,4′-piperidin]-1′-yl)pyridazine-3-carboxamide]	98	
O=C(NCCc1cccnc1)c1ccc(N2CCC3(C=Cc4ccccc43)CC2)nn1 [Example 74, N-(2-(pyridin-3-yl)ethyl)-6-(1′H-spiro[indene-1,4′-piperidin]-1′-yl)pyridazine-3-carboxamide]	98	
O=C(NCC(O)Cc1ccccc1)c1ccc(N2CCC3(C=Cc4ccccc43)CC2)nn1 (stereo not drawn) [Example 86, N-(2-hydroxy-3-phenylpropyl)-6-(1′H-spiro[indene-1,4′-piperidin]-1′-yl)pyridazine-3-carboxamide]	100	

Next, values leading:

inhibition at 10 µM [%]	SCD activity inhibitory rate (%)	Structure (SMILES)
98		O=C(N[C@H]1C[C@@H]1c1ccccc1)c1ccc(N2CCC3(C=Cc4ccccc43)CC2)nn1 [Example 126, N-[(1S,2R)-2-phenylcyclopropyl]-6-(1′H-spiro[indene-1,4′-piperidin]-1′-yl)pyridazine-3-carboxamide]
100		OCc1noc(-c2ccc(N3CCC4(CC3)COc3ccccc34)nn2)n1 [Example 143, {5-[6-(1′H-spiro[1-benzofuran-3,4′-piperidin]-1′-yl)pyridazin-3-yl]-1,2,4-oxadiazol-3-yl}methanol]
97		CC1CSC(c2ccc(N3CCC4(CC3)COc3ccccc34)nn2)=N1 (stereo not drawn) [Example 146, 1′-[6-(4-methyl-4,5-dihydro-1,3-thiazol-2-yl)pyridazin-3-yl]spiro[1-benzofuran-3,4′-piperidine]]
100		OCc1nc(-c2ccc(N3CCC4(CC3)COc3ccccc34)nn2)no1 [Example 148, {3-[6-(1′H-spiro[1-benzofuran-3,4′-piperidin]-1′-yl)pyridazin-3-yl]-1,2,4-oxadiazol-5-yl}methanol]
99		Cc1nc(-c2ccc(N3CCC4(C3)OCc3ccccc34)nn2)no1 (stereo not drawn) [Example 150, 1′-[6-(5-methyl-1,2,4-oxadiazol-3-yl)pyridazin-3-yl]-3H-spiro[2-benzofuran-1,3′-pyrrolidine]]
100		OCc1noc(-c2ccc(N3CCC4(C3)OCc3ccccc34)nn2)n1 (stereo not drawn) [Example 156, {5-[6-(1′H,3H-spiro[2-benzofuran-1,3′-pyrrolidin]-1′-yl)pyridazin-3-yl]-1,2,4-oxadiazol-3-yl}methanol]
100		OCc1noc(-c2ccc(N3CCC4(COc5ccccc54)C3)nn2)n1 (stereo not drawn) [Example 157, {5-[6-(1′H-spiro[1-benzofuran-3,3′-pyrrolidin]-1′-yl)pyridazin-3-yl]-1,2,4-oxadiazol-3-yl}methanol]
99		Cc1noc(-c2ccc(N3CCC4(C3)C(=O)N(C)c3ccccc34)nn2)n1 (stereo not drawn) [Example 159, 1-methyl-1′-[6-(3-methyl-1,2,4-oxadiazol-5-yl)pyridazin-3-yl]spiro[indole-3,3′-pyrrolidin]-2(1H)-one]
100		Cc1noc(-c2ccc(N3CCC4(Cc5ccccc5O4)C3)nn2)n1 (stereo not drawn) [Example 170, 1′-[6-(3-methyl-1,2,4-oxadiazol-5-yl)pyridazin-3-yl]-3H-spiro[1-benzofuran-2,3′-pyrrolidine]]
	99	Cc1noc(-c2ccc(N3CCC4(C3)OCc3ccccc34)nn2)n1 (stereo not drawn) [Example 177, 1′-[6-(3-methyl-1,2,4-oxadiazol-5-yl)pyridazin-3-yl]-3H-spiro[2-benzofuran-1,3′-pyrrolidine]]
	97	Cc1noc(-c2ccc(N3CCC4(C3)OCc3ccccc34)nn2)n1 (stereo not drawn) [Example 178, 1′-[6-(3-methyl-1,2,4-oxadiazol-5-yl)pyridazin-3-yl]-3H-spiro[2-benzofuran-1,3′-pyrrolidine]]
	96	Cc1noc(-c2ccc(N3CCC4(COc5ccccc54)C3)nn2)n1 (stereo not drawn) [Example 179 (long retention time), 1′-[6-(3-methyl-1,2,4-oxadiazol-5-yl)pyridazin-3-yl]spiro[1-benzofuran-3,3′-pyrrolidine]]
